Calls of active or inactive are those of the source. The rule behind the calls is not given here.
System: CCRIS mutagenicity, Ames/micronucleus/aberration tests
Assay: CCRIS mutagenicity studies

With `Cl/C=C/C[N+]12CN3CN(CN(C3)C1)C2` the mutagenic call (Test System: AMES SALMONELLA TYPHIMURIUM, Strain/Indicator: TA97, Metabolic Activation: HAMSTER, LIVER, S-9, AROCLOR 1254 (5, 10 OR 30%), Method: PREINCUBATION) was “inactive; negative”, the mutagenic call (Test System: AMES SALMONELLA TYPHIMURIUM, Strain/Indicator: TA97, Metabolic Activation: NONE, Method: PREINCUBATION) was “inactive; negative” and the mutagenic call (Test System: AMES SALMONELLA TYPHIMURIUM, Strain/Indicator: TA97, Metabolic Activation: RAT, LIVER, S-9, AROCLOR 1254 (5, 10 OR 30%), Method: PREINCUBATION) was “inactive; negative”. For the same molecule, the mutagenic call (Test System: AMES SALMONELLA TYPHIMURIUM, Strain/Indicator: TA98, Metabolic Activation: HAMSTER, LIVER, S-9, AROCLOR 1254 (5 OR 30%), Method: PREINCUBATION) was “inactive; negative”, the mutagenic call (Test System: AMES SALMONELLA TYPHIMURIUM, Strain/Indicator: TA98, Metabolic Activation: HAMSTER, LIVER, S-9, AROCLOR 1254 (10%), Method: PREINCUBATION) was “inactive; negative” and the mutagenic call (Test System: AMES SALMONELLA TYPHIMURIUM, Strain/Indicator: TA98, Metabolic Activation: HAMSTER, LIVER, S-9, AROCLOR 1254, Method: STANDARD PLATE) was “inactive; negative”. For the same molecule, the mutagenic call (Test System: AMES SALMONELLA TYPHIMURIUM, Strain/Indicator: TA98, Metabolic Activation: NONE, Method: PREINCUBATION) was “active; positive”, the mutagenic call (Test System: AMES SALMONELLA TYPHIMURIUM, Strain/Indicator: TA98, Metabolic Activation: NONE, Method: STANDARD PLATE) was “inactive; negative” and the mutagenic call (Test System: AMES SALMONELLA TYPHIMURIUM, Strain/Indicator: TA98, Metabolic Activation: RAT, LIVER, S-9, AROCLOR 1254 (5 OR 30%), Method: PREINCUBATION) was “inactive; negative”. The mutagenic call (Test System: AMES SALMONELLA TYPHIMURIUM, Strain/Indicator: TA98, Metabolic Activation: RAT, LIVER, S-9, AROCLOR 1254 (10%), Method: PREINCUBATION) was “inactive; negative”, the mutagenic call (Test System: AMES SALMONELLA TYPHIMURIUM, Strain/Indicator: TA98, Metabolic Activation: RAT, LIVER, S-9, AROCLOR 1254, Method: STANDARD PLATE) was “inactive; negative” and the mutagenic call (Test System: AMES SALMONELLA TYPHIMURIUM, Strain/Indicator: TA100, Metabolic Activation: HAMSTER, LIVER, S-9, AROCLOR 1254 (5 OR 30%), Method: PREINCUBATION) was “inactive; negative”. For the same molecule, the mutagenic call (Test System: AMES SALMONELLA TYPHIMURIUM, Strain/Indicator: TA100, Metabolic Activation: HAMSTER, LIVER, S-9, AROCLOR 1254 (10%), Method: PREINCUBATION) was “inactive; negative”, the mutagenic call (Test System: AMES SALMONELLA TYPHIMURIUM, Strain/Indicator: TA100, Metabolic Activation: HAMSTER, LIVER, S-9, AROCLOR 1254, Method: STANDARD PLATE) was “inactive; negative” and the mutagenic call (Test System: AMES SALMONELLA TYPHIMURIUM, Strain/Indicator: TA100, Metabolic Activation: NONE, Method: PREINCUBATION) was “inactive; negative”. For the same molecule, the mutagenic call (Test System: AMES SALMONELLA TYPHIMURIUM, Strain/Indicator: TA100, Metabolic Activation: NONE, Method: STANDARD PLATE) was “inactive; negative”, the mutagenic call (Test System: AMES SALMONELLA TYPHIMURIUM, Strain/Indicator: TA100, Metabolic Activation: RAT, LIVER, S-9, AROCLOR 1254 (5 OR 30%), Method: PREINCUBATION) was “inactive; negative” and the mutagenic call (Test System: AMES SALMONELLA TYPHIMURIUM, Strain/Indicator: TA100, Metabolic Activation: RAT, LIVER, S-9, AROCLOR 1254 (10%), Method: PREINCUBATION) was “inactive; negative”. For the same molecule, the mutagenic call (Test System: AMES SALMONELLA TYPHIMURIUM, Strain/Indicator: TA100, Metabolic Activation: RAT, LIVER, S-9, AROCLOR 1254, Method: STANDARD PLATE) was “inactive; negative”, the mutagenic call (Test System: AMES SALMONELLA TYPHIMURIUM, Strain/Indicator: TA1535, Metabolic Activation: HAMSTER, LIVER, S-9, AROCLOR 1254 (10%), Method: PREINCUBATION) was “inactive; negative” and the mutagenic call (Test System: AMES SALMONELLA TYPHIMURIUM, Strain/Indicator: TA1535, Metabolic Activation: HAMSTER, LIVER, S-9, AROCLOR 1254, Method: STANDARD PLATE) was “inactive; negative”. The mutagenic call (Test System: AMES SALMONELLA TYPHIMURIUM, Strain/Indicator: TA1535, Metabolic Activation: NONE, Method: PREINCUBATION) was “inactive; negative”, the mutagenic call (Test System: AMES SALMONELLA TYPHIMURIUM, Strain/Indicator: TA1535, Metabolic Activation: NONE, Method: STANDARD PLATE) was “inactive; negative” and the mutagenic call (Test System: AMES SALMONELLA TYPHIMURIUM, Strain/Indicator: TA1535, Metabolic Activation: RAT, LIVER, S-9, AROCLOR 1254 (10%), Method: PREINCUBATION) was “inactive; negative”. The mutagenic call (Test System: AMES SALMONELLA TYPHIMURIUM, Strain/Indicator: TA1535, Metabolic Activation: RAT, LIVER, S-9, AROCLOR 1254, Method: STANDARD PLATE) was “inactive; negative”, the mutagenic call (Test System: AMES SALMONELLA TYPHIMURIUM, Strain/Indicator: TA1537, Metabolic Activation: HAMSTER, LIVER, S-9, AROCLOR 1254 (5, 10 OR 30%), Method: PREINCUBATION) was “inactive; negative” and the mutagenic call (Test System: AMES SALMONELLA TYPHIMURIUM, Strain/Indicator: TA1537, Metabolic Activation: HAMSTER, LIVER, S-9, AROCLOR 1254, Method: STANDARD PLATE) was “inactive; negative”. For the same molecule, the mutagenic call (Test System: AMES SALMONELLA TYPHIMURIUM, Strain/Indicator: TA1537, Metabolic Activation: NONE, Method: STANDARD PLATE) was “inactive; negative”, the mutagenic call (Test System: AMES SALMONELLA TYPHIMURIUM, Strain/Indicator: TA1537, Metabolic Activation: RAT, LIVER, S-9, AROCLOR 1254 (5, 10 OR 30%), Method: PREINCUBATION) was “inactive; negative” and the mutagenic call (Test System: AMES SALMONELLA TYPHIMURIUM, Strain/Indicator: TA1537, Metabolic Activation: RAT, LIVER, S-9, AROCLOR 1254, Method: STANDARD PLATE) was “inactive; negative”. For the same molecule, the mutagenic call (Test System: AMES SALMONELLA TYPHIMURIUM, Strain/Indicator: TA1538, Metabolic Activation: HAMSTER, LIVER, S-9, AROCLOR 1254, Method: STANDARD PLATE) was “inactive; negative”, the mutagenic call (Test System: AMES SALMONELLA TYPHIMURIUM, Strain/Indicator: TA1538, Metabolic Activation: NONE, Method: STANDARD PLATE) was “inactive; negative” and the mutagenic call (Test System: AMES SALMONELLA TYPHIMURIUM, Strain/Indicator: TA1538, Metabolic Activation: RAT, LIVER, S-9, AROCLOR 1254, Method: STANDARD PLATE) was “inactive; negative”. The mutagenic call (Test System: MOUSE LYMPHOMA, Strain/Indicator: L5178Y (TK+/TK-), Metabolic Activation: NONE, Method: SUSPENSION/PLATE) was “active; positive. reevaluation of results: positive” and the mutagenic call (Test System: MOUSE LYMPHOMA, Strain/Indicator: L5178Y (TK+/TK-), Metabolic Activation: RAT, LIVER, S-9, AROCLOR 1254, Method: SUSPENSION/PLATE) was “active; positive. reevaluation of results: positive”.
